Measurements as given in patent US11351178B2, “Selective HDAC6 inhibitors” (ITALFARMACO S.P.A., priority 2017, dated 2022).

How the values were obtained:
recombinant human HDAC6 = target: T1, recombinant human HDAC6 (Homo sapiens, UniProt Q9UBN7); test: Enzymatic screening on recombinant human HDAC6; type: biochemical; details: Table 2; read-out: HDAC6 IC50
T1 sequence (Q9UBN7 1-1215): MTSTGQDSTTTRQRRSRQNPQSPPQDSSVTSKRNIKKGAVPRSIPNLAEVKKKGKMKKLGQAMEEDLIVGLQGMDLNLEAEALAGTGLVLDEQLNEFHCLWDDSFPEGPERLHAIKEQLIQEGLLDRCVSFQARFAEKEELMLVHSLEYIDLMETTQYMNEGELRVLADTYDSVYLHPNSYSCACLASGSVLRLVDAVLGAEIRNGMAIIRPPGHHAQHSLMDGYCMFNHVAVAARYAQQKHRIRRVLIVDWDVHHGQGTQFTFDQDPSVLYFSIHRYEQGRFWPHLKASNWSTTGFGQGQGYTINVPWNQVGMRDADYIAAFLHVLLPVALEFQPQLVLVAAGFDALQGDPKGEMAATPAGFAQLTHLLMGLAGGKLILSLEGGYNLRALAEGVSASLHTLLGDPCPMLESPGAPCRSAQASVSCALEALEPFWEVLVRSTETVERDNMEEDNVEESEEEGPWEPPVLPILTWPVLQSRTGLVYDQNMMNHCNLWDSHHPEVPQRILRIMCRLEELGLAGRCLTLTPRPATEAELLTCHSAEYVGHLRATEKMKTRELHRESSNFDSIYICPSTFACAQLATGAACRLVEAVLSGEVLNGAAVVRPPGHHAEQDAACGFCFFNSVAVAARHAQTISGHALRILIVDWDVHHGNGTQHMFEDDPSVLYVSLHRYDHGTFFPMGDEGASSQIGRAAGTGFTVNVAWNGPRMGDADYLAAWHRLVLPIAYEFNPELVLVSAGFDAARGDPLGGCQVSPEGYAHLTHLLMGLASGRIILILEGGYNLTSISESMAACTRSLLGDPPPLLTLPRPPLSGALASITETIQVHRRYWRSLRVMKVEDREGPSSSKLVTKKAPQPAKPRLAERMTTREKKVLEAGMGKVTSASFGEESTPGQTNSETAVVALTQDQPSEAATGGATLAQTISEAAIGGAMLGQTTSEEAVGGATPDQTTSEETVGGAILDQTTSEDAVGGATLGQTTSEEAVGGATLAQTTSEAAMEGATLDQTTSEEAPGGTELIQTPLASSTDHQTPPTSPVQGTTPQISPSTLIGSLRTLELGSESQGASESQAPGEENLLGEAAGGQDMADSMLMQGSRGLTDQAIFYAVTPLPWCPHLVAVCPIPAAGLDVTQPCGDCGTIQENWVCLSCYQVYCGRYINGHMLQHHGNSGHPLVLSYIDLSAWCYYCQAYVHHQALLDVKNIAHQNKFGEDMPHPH
Description: Enzymatic activity on recombinant human HDAC6 and HDAC3 was evaluated (Table 2) for each synthesized compound.
After a period of incubation at 30° C. (incubation times vary for different isoforms and are shown in table 1) 25 μL of solution containing the substrate were added. As substrate, FLUOR DE LYS® deacetylase substrate (Enzo Life Sciences, cat #BML-K1104, FdL), FLUOR DE LYS®-Green substrate (Enzo Life Sciences, cat #BML-K1572 FdL_G) and trifluoroacetyl-L-lysine (Tfal)-2× concentrated solution in 25 mM Tris-HCl, pH 8, 130 mM NaCl 0.05% Tween-20 10% glycerol) were used. Following a reaction period at 30° C.

[1] = Stability to Phase I metabolism in rat S9 liver fraction; type: in vitro ADME; details: after 90 min, 37° C.
Description: Test compounds were incubated in rat and human liver S9 fraction at 37° C. up to 90 minutes in order to evaluate their stability to Phase I metabolism by hepatic enzymes. […] The reaction was stopped placing samples on ice bath and adding acidified acetonitrile. After centrifugation (10 minutes at 14000 rpm) an aliquot of the supernatant was diluted water, filtered with 0.45 μm regenerated cellulose syringe filters and injected in HPLC-UV or in LC-MS/MS. The percentages of the amount remaining at the various incubation times with respect to the initial amount were calculated. The intrinsic clearance was also calculated.

Stability in rat plasma = type: in vitro ADME; details: after 4 hours, 37° C.
Description: In order to evaluate the stability to circulating enzymes, test compounds were incubated in human and rat plasma at 37° C. in a thermostated oscillating bath. Each test compound was incubated at μM (50 μM when the samples were analysed by UV/HPLC, 1 or 2 μM when the samples were analysed by LC-MS/MS) concentration for 0, 15, 30 min and 1, 2 and 4 hours. The reaction was stopped placing tubes on ice bath and adding acidified acetonitrile. After centrifugation for 10 minutes at 14000 rpm, an aliquot of the supernatant was diluted with water, filtered with 0.45 μm syringe filters and injected in HPLC-UV or in LC-MS/MS. The percentages of amount remaining at the various times of incubation with respect to initial amount were calculated. The half-life in plasma was also calculated.

Row | Structure (SMILES) | IC50 (recombinant human HDAC6) | residual percentage in rat S9 fraction [1] | residual percentage in rat plasma (Stability in rat plasma)
1 | CCn1c(Sc2ccc(C(=O)NO)cc2)nnc1-c1ccc(F)cc1 [comp. 30, 4-[[4-ethyl-5-(4-fluorophenyl)-1,2,4-triazol-3-yl]sulfanyl]benzenecarbohydroxamic acid] | 25 nM | 63% | 49%
2 | O=C(NO)c1ccc(Cn2nnc(-c3ccc(Cl)cc3)n2)cc1 [comp. 31, 4-[[5-(4-chlorophenyl)tetrazol-2-yl]methyl]benzenecarbohydroxamic acid] | 14 nM | 0% | 76%
3 | O=C(NO)c1ccc(Cn2nnc(Cc3ccccc3)n2)cc1 [comp. 36, 4-[(5-benzyltetrazol-2-yl)methyl]benzenecarbohydroxamic acid] | 52 nM | 38% | 60%
4 | O=C(NO)c1ccc(Cn2nnnc2Cc2ccccc2)cc1 [comp. 37, 4-[(5-benzyltetrazol-1-yl)methyl]benzenecarbohydroxamic acid] | 212 nM | 82% | 6%
5 | Cc1ccsc1-c1nnn(Cc2ccc(C(=O)NO)cc2)n1 [comp. 39, 4-[[5-(3-methyl-2-thienyl)tetrazol-2-yl]methyl]benzenecarbohydroxamic acid] | 3 nM | 0% | 63%
6 | COc1ccc(Cc2nc(Cc3ccc(C(=O)NO)cc3)n(-c3ccc(C(F)(F)F)cc3)n2)cc1OC [comp. 44, 4-[[5-[(3,4-dimethoxyphenyl)methyl]-2-[4-(trifluoromethyl)phenyl]-1,2,4-triazol-3-yl]methyl]benzenecarbohydroxamic acid] | 415 nM | 87% | 32%
7 | COc1ccc(Cc2nnc(Cc3ccc(C(=O)NO)cc3)o2)cc1OC [comp. 45, 4-[[5-[(3,4-dimethoxyphenyl)methyl]-1,3,4-oxadiazol-2-yl]methyl]benzenecarbohydroxamic acid] | 68 nM | 69% | 81%
8 | COc1ccc(-c2nc(Cc3ccc(C(=O)NO)cc3)no2)cc1OC [comp. 49, 4-[[5-(3,4-dimethoxyphenyl)-1,2,4-oxadiazol-3-yl]methyl]benzenecarbohydroxamic acid] | 7 nM | 57% | 82%
9 | COc1ccc(-c2nnc(Cc3ccc(C(=O)NO)cc3)o2)cc1OC [comp. 57, 4-[[5-(3,4-dimethoxyphenyl)-1,3,4-oxadiazol-2-yl]methyl]benzenecarbohydroxamic acid] | 8 nM | 71% | 94%
10 | Cc1nc(Sc2ccc(C(=O)NO)cc2)nn1-c1ccc(Cl)cc1Cl [comp. 62, 4-[[1-(2,4-dichlorophenyl)-5-methyl-1,2,4-triazol-3-yl]sulfanyl]benzenecarbohydroxamic acid] | 127 nM | 55% | 83%
11 | Cc1ccc(-c2cc(-c3nnc(Sc4ccc(C(=O)NO)cc4)n3C)c3ccccc3n2)cc1 [comp. 67, 4-[[4-methyl-5-[2-(p-tolyl)-4-quinolyl]-1,2,4-triazol-3-yl]sulfanyl]benzenecarbohydroxamic acid] | 70 nM | 44% | 101%
12 | O=C(NO)c1ccc(Cc2nnc(-c3ccccc3)o2)cc1 [comp. 68, 4-[(5-phenyl-1,3,4-oxadiazol-2-yl)methyl]benzenecarbohydroxamic acid] | 4 nM | 34% | 77%
13 | COc1ccc(-c2nnn(Cc3ccc(C(=O)NO)cc3)n2)cc1OCc1ccccc1 [comp. 70, 4-[[5-(3-benzyloxy-4-methoxy-phenyl)tetrazol-2-yl]methyl]benzenecarbohydroxamic acid] | 9 nM | 18% | 79%
14 | COc1ccc(-c2nnnn2Cc2ccc(C(=O)NO)cc2)cc1OCc1ccccc1 [comp. 71, 4-[[5-(3-benzyloxy-4-methoxy-phenyl)tetrazol-1-yl]methyl]benzenecarbohydroxamic acid] | 52 nM | 58% | 4%
15 | Cn1c(Sc2ccc(C(=O)NO)cc2)nnc1C1COc2ccccc2O1 (stereo not drawn) [comp. 83, 4-[[5-(2,3-dihydro-1,4-benzodioxin-3-yl)-4-methyl-1,2,4-triazol-3-yl]sulfanyl]benzenecarbohydroxamic acid] | 22 nM | 92% | 76%
16 | O=C(NO)c1ccc(Cn2nnc(-c3ccccn3)n2)cc1 [comp. 89, 4-[[5-(2-pyridyl)tetrazol-2-yl]methyl]benzenecarbohydroxamic acid] | 9 nM | 97% | 70%
17 | O=C(NO)c1cc(F)c(Cn2nnc(-c3ccc4ccccc4n3)n2)c(F)c1 [comp. 95, 3,5-difluoro-4-[[5-(2-quinolyl)tetrazol-2-yl]methyl]benzenecarbohydroxamic acid] | 10 nM | 41% | 75%
18 | O=C(NO)c1cc(F)c(Cn2nnnc2-c2ccc3ccccc3n2)c(F)c1 [comp. 96, 3,5-difluoro-4-[[5-(2-quinolyl)tetrazol-1-yl]methyl]benzenecarbohydroxamic acid] | 7 nM | 41% | 99%
19 | Cn1c(Sc2c(F)cc(C(=O)NO)cc2F)nnc1-c1sc2ncccc2c1N [comp. 99, 4-[[5-(3-aminothieno[2,3-b]pyridin-2-yl)-4-methyl-1,2,4-triazol-3-yl]sulfanyl]-3,5-difluoro-benzenecarbohydroxamic acid] | 7 nM | 108% | 91%
20 | Cn1c(Sc2c(F)cc(C(=O)NO)cc2F)nnc1C1(c2ccccc2)CCC1 [comp. 101, 3,5-difluoro-4-[[4-methyl-5-(1-phenylcyclobutyl)-1,2,4-triazol-3-yl]sulfanyl]benzenecarbohydroxamic acid] | 18 nM | 9% | 73%
21 | Cn1c(Sc2c(F)cc(C(=O)NO)cc2F)nnc1C1(c2cccc(F)c2)CCCC1 [comp. 102, 3,5-difluoro-4-[[5-[1-(3-fluorophenyl)cyclopentyl]-4-methyl-1,2,4-triazol-3-yl]sulfanyl]benzenecarbohydroxamic acid] | 33 nM | 16% | 82%
